# Laboratory results: BindingDB's records for patent US20250115591 (Inflazome, 2025)
# Target: NACHT, LRR and PYD domains-containing protein 3 (Homo sapiens, UniProt Q96P20)
# Assay: THP-1 Cells Pyroptosis Assay
# Procedure: 1. Seed THP-1 cells (25,000 cells/well) containing 1.0 μg/ml LPS in 40μ of RPMI medium (without FBS) in 96-well, black walled, clear bottom cell culture plates coated with poly-D-lysine (VWR #734-0317)2. Add 5 μl compound (8 points half-log dilution, with […]) or vehicle (DMSO 0.1% FAC) to the appropriate wells3. Incubate for 3 hrs at 37° C. and 5% CO24. Add 5 μl nigericin (Sigma #N7143) (FAC 5 μM) to all wells5. Incubate for 1 hr at 37° C. and 5% CO26. At the end of the incubation period, spin plates at 300×g for 3 mins and remove supernatant7. Then add 50 μl of resazurin (Sigma #R7017) (FAC 100 μM resazurin in RPMI medium without FBS) and incubate plates for a further 1-2 hrs at 37° C. and 5% CO28. Plates were read in an Envision reader at Ex 560 nm and Em 590 nm9. IC50 data is fitted to a non-linear regression equation (log inhibitor vs response-variable slope 4-parameters)
# Chain of NACHT, LRR and PYD domains-containing protein 3 (Q96P20 whole entry, the tested form may be a part): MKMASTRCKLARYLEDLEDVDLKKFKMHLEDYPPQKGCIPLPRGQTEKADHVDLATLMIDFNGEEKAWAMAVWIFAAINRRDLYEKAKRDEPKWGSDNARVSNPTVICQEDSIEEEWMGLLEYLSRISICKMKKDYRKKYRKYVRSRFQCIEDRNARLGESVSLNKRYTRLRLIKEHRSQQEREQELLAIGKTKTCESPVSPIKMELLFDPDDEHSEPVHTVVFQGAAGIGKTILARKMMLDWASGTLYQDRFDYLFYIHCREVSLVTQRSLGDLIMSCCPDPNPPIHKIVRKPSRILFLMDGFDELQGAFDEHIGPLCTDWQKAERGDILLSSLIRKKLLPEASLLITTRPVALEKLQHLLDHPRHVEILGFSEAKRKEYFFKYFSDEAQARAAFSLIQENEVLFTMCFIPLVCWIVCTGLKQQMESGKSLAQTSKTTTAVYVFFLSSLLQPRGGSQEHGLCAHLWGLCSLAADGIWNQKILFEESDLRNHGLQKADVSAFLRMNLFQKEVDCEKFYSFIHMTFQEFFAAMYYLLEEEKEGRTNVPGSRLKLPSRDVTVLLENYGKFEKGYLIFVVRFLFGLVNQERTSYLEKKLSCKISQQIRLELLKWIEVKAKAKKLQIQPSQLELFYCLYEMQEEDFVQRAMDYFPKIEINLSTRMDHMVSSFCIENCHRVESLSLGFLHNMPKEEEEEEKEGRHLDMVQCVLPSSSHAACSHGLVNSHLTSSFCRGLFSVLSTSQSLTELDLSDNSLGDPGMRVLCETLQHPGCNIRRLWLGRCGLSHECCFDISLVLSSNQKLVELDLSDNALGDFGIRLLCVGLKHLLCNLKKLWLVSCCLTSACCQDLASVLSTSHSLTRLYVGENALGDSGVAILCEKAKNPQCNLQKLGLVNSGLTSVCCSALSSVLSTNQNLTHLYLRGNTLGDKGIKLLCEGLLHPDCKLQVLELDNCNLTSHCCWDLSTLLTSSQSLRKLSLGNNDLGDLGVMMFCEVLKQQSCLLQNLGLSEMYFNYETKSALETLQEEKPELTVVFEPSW
row,IC50 [µM],Structure (SMILES)
1,< 10,"CCC(C)N1CC(S(=O)(=O)NC(=O)Nc2c(C(C)C)cc(F)cc2C(C)C)C1 (stereo unspecified) [US20250115591, Example 143]"
2,< 1,"O=C(Nc1c2c(cc3c1CCC3)CCC2)NS(=O)(=O)C1CN(C2CCCC2)C1 [US20250115591, Example 99]"
3,< 1,"CC(C)(C)N1CC(S(=O)(=O)NC(=O)Nc2c3c(cc4c2CCC4)CCC3)C1 [US20250115591, Example 93]"
4,< 10,"CC(C)NC(=O)N1CCCC(S(=O)(=O)NC(=O)Nc2c3c(cc4c2CCC4)CCC3)C1 (stereo unspecified) [US20250115591, Example 33]"
5,< 10,"CC(=O)N1CCCC(S(=O)(=O)NC(=O)Nc2c3c(cc4c2CCC4)CCC3)C1 (stereo unspecified) [US20250115591, Example 56]"
6,< 10,"CCCCCCn1cc(S(=O)(=O)NC(=O)Nc2c3c(cc4c2CCC4)CCC3)c(=O)[nH]c1=O [US20250115591, Example 17]"
7,< 10,"O=C(Nc1c2c(cc3c1CCC3)CCC2)NS(=O)(=O)C1CCNC1 (stereo unspecified) [US20250115591, Example 55]"
8,< 1,"O=C(Nc1c2c(cc3c1CCC3)CCC2)NS(=O)(=O)C1CN(C2CCC2)C1 [US20250115591, Example 18]"
9,< 1,"CCN1CCC(S(=O)(=O)NC(=O)Nc2c3c(cc4c2CCC4)CCC3)C1 (stereo unspecified) [US20250115591, Example 37]"
10,< 10,"CNC(=N)N1CC(S(=O)(=O)NC(=O)Nc2c3c(cc4c2CCC4)CCC3)C1 [US20250115591, Example 129]"
11,< 10,"CN(C)C(=O)CN1CC(S(=O)(=O)NC(=O)Nc2c3c(cc4c2CCC4)CCC3)C1 [US20250115591, Example 21]"
12,< 10,"CC(C)(C)OC(=O)N1CC(N2CC(S(=O)(=O)NC(=O)Nc3c4c(cc5c3CCC5)CCC4)C2)C1 [US20250115591, Example 106]"
13,< 1,"C[C@@H](O)Cn1cc(S(=O)(=O)NC(=O)Nc2c3c(cc4c2CCC4)CCC3)ccc1=O [US20250115591, Example 183]"
14,< 10,"CC(=O)N1CCC(S(=O)(=O)NC(=O)Nc2c3c(cc4c2CCC4)CCC3)C1 (stereo unspecified) [US20250115591, Example 38]"
15,< 10,"CCNC(=O)N1CCC(S(=O)(=O)NC(=O)Nc2c3c(cc4c2CCC4)CCC3)C1 (stereo unspecified) [US20250115591, Example 30]"
16,< 10,"CCC(C)N1CCC(S(=O)(=O)NC(=O)Nc2c3c(cc4c2CCC4)CCC3)C1 (stereo unspecified) [US20250115591, Example 82]"
17,< 10,"CCNC(=O)N1CCC(S(=O)(=O)NC(=O)Nc2c3c(cc4c2CCC4)CCC3)CC1 [US20250115591, Example 26]"

row,IC50 [µM],Structure (SMILES)
1,< 1,"CCN1CCCC(S(=O)(=O)NC(=O)Nc2c3c(cc4c2CCC4)CCC3)CC1 (stereo unspecified) [US20250115591, Example 194]"
2,< 10,"CC(C)N1CC(S(=O)(=O)NC(=O)Nc2c3c(cc4c2CCC4)CCC3)CC1C(=O)N(C)C (stereo unspecified) [US20250115591, Example 148]"
3,< 10,"CC(=O)N1CCC(S(=O)(=O)NC(=O)Nc2c3c(cc4c2CCC4)CCC3)CC1 [US20250115591, Example 3]"
4,< 10,"CCC(C)N1CC(S(=O)(=O)NC(=O)Nc2c(C(C)C)cc(Cl)cc2C(C)C)C1 (stereo unspecified) [US20250115591, Example 187]"
5,< 10,"COC(=O)CN1CC(S(=O)(=O)NC(=O)Nc2c3c(cc4c2CCC4)CCC3)C1 [US20250115591, Example 78]"
6,< 1,"N=C(N)N1CC(S(=O)(=O)NC(=O)Nc2c3c(cc4c2CCC4)CCC3)C1 [US20250115591, Example 113]"
7,< 10,"Cn1cc(S(=O)(=O)NC(=O)Nc2c3c(cc4c2CCC4)CCC3)c(=O)n(C)c1=O [US20250115591, Example 16]"
8,< 1,"O=C(Nc1c2c(cc3c1CCC3)CCC2)NS(=O)(=O)C1CN(C2CCCCC2)C1 [US20250115591, Example 98]"
9,< 10,"N#CCN1CC(S(=O)(=O)NC(=O)Nc2c3c(cc4c2CCC4)CCC3)C1 [US20250115591, Example 87]"
10,< 10,"CC(=O)N1CC(S(=O)(=O)NC(=O)Nc2c3c(cc4c2CCC4)CCC3)C1 [US20250115591, Example 74]"
11,< 1,"C=CCN1CC(S(=O)(=O)NC(=O)Nc2c3c(cc4c2CCC4)CCC3)C1 [US20250115591, Example 132]"
12,< 1,"COc1cc(-c2ccc3c(c2NC(=O)NS(=O)(=O)c2cn(C(C)C)c(=O)cn2)CCC3)ccn1 [US20250115591, Example 156]"
13,< 10,"CCCCN1CC(S(=O)(=O)NC(=O)Nc2c3c(cc4c2CCC4)CCC3)C1 [US20250115591, Example 83]"
14,< 10,"O=C(Nc1c2c(cc3c1CCC3)CCC2)NS(=O)(=O)C1CN(C2CNC2)C1 [US20250115591, Example 114]"
15,< 10,"CNC(=O)N1CCC(S(=O)(=O)NC(=O)Nc2c3c(cc4c2CCC4)CCC3)CC1 [US20250115591, Example 28]"
16,< 10,"O=C(Nc1c2c(cc3c1CCC3)CCC2)NS(=O)(=O)C1CNC1 [US20250115591, Example 42]"
17,< 1,"O=C(Nc1c2c(cc3c1CCC3)CCC2)NS(=O)(=O)C1CN(C2CC2)C1 [US20250115591, Example 85]"

row,Structure (SMILES),IC50 [µM]
1,"CCN1[C@@H]2CC[C@H]1C[C@@H](S(=O)(=O)NC(=O)Nc1c3c(cc4c1CCC4)CCC3)C2 [US20250115591, Example 52]",< 10
2,"CCN1[C@@H]2CC[C@H]1C[C@H](S(=O)(=O)NC(=O)Nc1c3c(cc4c1CCC4)CCC3)C2 [US20250115591, Example 70]",< 1
3,"CC(C)N1[C@@H]2CC[C@H]1C[C@H](S(=O)(=O)NC(=O)Nc1c3c(cc4c1CCC4)CCC3)C2 [US20250115591, Example 69]",< 1
4,"CC(C)N1[C@@H]2CC[C@H]1C[C@@H](S(=O)(=O)NC(=O)Nc1c3c(cc4c1CCC4)CCC3)C2 [US20250115591, Example 45]",< 1
5,"CN1CC(N2[C@@H]3CC[C@H]2C[C@@H](S(=O)(=O)NC(=O)Nc2c4c(cc5c2CCC5)CCC4)C3)C1 [US20250115591, Example 146]",< 10
6,"CN(C(=O)OC(C)(C)C)/C(=N\C(=O)OC(C)(C)C)N1CC(S(=O)(=O)NC(=O)Nc2c3c(cc4c2CCC4)CCC3)C1 [US20250115591, Example 127]",< 10
7,"CC(C)(C)OC(=O)/N=C(/NC(=O)OC(C)(C)C)N1CC(S(=O)(=O)NC(=O)Nc2c3c(cc4c2CCC4)CCC3)C1 [US20250115591, Example 112]",< 10
